# Assay results taken from patent EP4818187A1, “COMPOUND AND USE THEREOF” (Ganzhou Hemay Pharmaceutical, Co., Ltd, priority 2023, dated 2025).
# What was measured:
# [1] = system: Fadu (human pharyngeal squamous cell carcinoma); assay: In vitro inhibitory effect against human tumor cells (MTT); format: cell-based; settings: 72 h, 3 days
# Protocol: (§1) Cells were cultured with 5% CO2 at 37°C and saturated humidity until they reached a logarithmic growth phase (usually adherent cells were nearly fully confluent). After removing adherent cells by trypsin/EDTA digestion, the cells were collected for subsequent experiments.
# (§2) The cells were inoculated into a 96-well cell culture plate (hereinafter referred to as the 96-well plate) based on the cell count shown in Table 2, cultured overnight to achieve cell adherence, and then, after different concentrations of the test compound were added, further cultured for a total of 3 days. Finally, the total cell protein in the assay wells was assayed by SRB, or the cell viability was assessed by MTT:
# (§3) 2.2 Assaying cell viability by MTT: the modification is based on the method in the literature (J. Carmichael, W. DeGraff, A. Gazdar et al., Evaluation of a tetrazolium-based semiautomated colorimetric assay: assessment of chemosensitivity testing. Cancer Research. 1987, 47: 936-942). Specific method: For well-adherent cells: the medium was pipetted out, 100 µL of a basal medium containing 0.5 mg/mL MTT (medium free of fetal bovine serum (FBS) and other additives) was added to each well, and culture was continued for additional 3 h. The MTT-containing basal medium was pipetted out, and 100 µL of DMSO was added to each well to dissolve formazan, followed by assay at a wavelength of 490 nm.
# (§4) For poorly-adherent cells: MTT solution was directly added to a concentration of 0.5 mg/mL, culture was continued for additional 3 h, and an equal volume of triple solvent was added to the system to dissolve formazan, followed by assay at a wavelength of 570 nm.
# (§5) 2.3: 1-2 mg of β-glucuronidase was weighed, and dissolved in PBS to prepare 2 mg/mL stock solution. Prior to use, the stock solution was diluted with a complete medium to prepare 12.5 µg/mL enzyme working solution. For assay wells requiring the enzyme, 80 µL of the enzyme working solution was added, with the β-glucuronidase at a concentration of 1 µg/well; and for assay wells not requiring the enzyme, 80 µL of the complete medium was added.
# (§6) 1-3 mg of the test compound was weighed, and dissolved in DMSO to prepare 20 mM stock solution. The stock solution was diluted in a 3-fold gradient with DMSO, then diluted 100-fold with RPMI1640 basal medium to obtain 10× working solutions, with a total of 8 concentrations. 20 µL of the 10× working solutions were add to the assay wells, with the final volume of each well of 200 µL, and with the DMSO at a concentration of 0.1%.
# (§7) 2.4 Calculation of inhibitory activity of compound: the experiment includes a compound test group, a compound-free positive solvent control group (PC), and a negative solvent control group (NC) without cells and the compound. Inhibition rate = [1−(testvalue−NCmean)/(PCmean−NCmean)] × 100% [formula]
# (§8) The mean and SD of the inhibition rate were obtained from replicate assay wells. A curve was plotted with the compound concentrations distributed in a logarithmic form as the abscissa and with the mean inhibition rates as the ordinate, and was fitted with a 4-parameter logistic equation. The compound concentration corresponding to 50% inhibition rate on the curve is the IC50 value. Table 2: Culture medium formulation and cell inoculation concentration for human tumor cell lines
# [2] = system: HCT116 (human colorectal cancer); assay: as above; format: cell-based; settings: HCT-116, 72 h, 3 days
# Protocol: as §1, §2, §3, §4, §5, §6, §7, §8
# [3] = system: NCI-H1975 (human non-small cell lung cancer); assay: as above; format: cell-based; settings: NCI-H1975, 72 h, 3 days
# Protocol: as §1, §2, §3, §4, §5, §6, §7, §8
# [4] = system: SK-OV-3 (human ovarian cancer); assay: as above; format: cell-based; settings: SK-OV-3, 72 h, SK-OV-3, MTT, 3 days
# Protocol: as §1, §2, §3, §4, §5, §6, §7, §8
# [5] = system: 22RV1 (human prostate cancer); assay: In vitro inhibitory effect against human tumor cells (SRB); format: cell-based; settings: 22Rv1, 72 h, 22RV1, SRB, 3 days
# Protocol: as §1, §2
# (§9) 2.1 Assaying total cell protein by SRB: the modification is based on the method in the literature (V. Vichai and K. Kirtikara. Sulforhodamine B colorimetric assay for cytotoxicity screening. Nature Protocols. 2006, 1: 1112-1116). Specific method: the culture medium was pipetted out from the wells, the cells were fixed with 10% trichloroacetic acid for more than 1 h, and trichloroacetic acid was removed; the cells were washed with H2O, and stained with 0.4% SRB for 15-30 min; after excess SRB was removed, the cells were washed with 1% acetic acid; 100 µl of 10 mM tris(trihydroxymethylaminomethane) was added to dissolve the protein-bound SRB, followed by assay at a wavelength of 570 nm.
# as §5, §6, §7, §8
# [6] = system: A375 (human malignant melanoma); assay: as above; format: cell-based; settings: A-375, 72 h, 3 days
# Protocol: as §1, §2, §9, §5, §6, §7, §8
# [7] = system: HepG2 (human liver cancer cell); assay: as above; format: cell-based; settings: HepG2, 72 h, 3 days
# Protocol: as §1, §2, §9, §5, §6, §7, §8
# [8] = system: BxPC-3 (human pancreatic cancer in situ); assay: In vitro inhibitory effect against human tumor cells (MTT or SRB); format: cell-based; settings: BXPC-3, 72 h, BxPC-3, test method printed MTT (head: SRB), 3 days
# Protocol: as §1, §2, §9, §3, §4, §5, §6, §7, §8
# [9] = system: human ovarian cancer SK-OV-3; assay: Biological Example 5: in vivo xenograft model of human ovarian cancer SK-OV-3; design: species or system Balb/c-nu nude mice; settings: SK-OV-3 xenograft, nude mice, 0.8 mg/kg i.v. qw×3
# [10] = system: human non-small cell lung cancer NCI-H1975; assay: Biological Example 7: in vivo xenograft model of human non-small cell lung cancer NCI-H1975; design: species or system Balb/c-nu nude mice; settings: nude mice; for Final body weight change (%) / Maximum body weight change (%) / Relative volume RTV (x±S.D.) / T/C (%) / Tumor inhibition rate (%) / Tumor weight (g, x±S.D.): 0.8 mg/kg i.v. qw×3; for Body weight (g, x±S.D.) End: 0.8 mg/kg i.v. qw×3, End; for Body weight (g, x±S.D.) Start: 0.8 mg/kg i.v. qw×3, Start
# [11] = system: human non-small cell lung cancer NCI-H1975; assay: Biological Example 10: in vivo xenograft model of human non-small cell lung cancer NCI-H1975; design: species or system Balb/c-nu nude mice; settings: nude mice
# [12] = With addition of βGU (1 µg/well)
Structure (SMILES),"IC50 [1, 12]",IC50 ([1]; βGU-free),"IC50 [2, 12]",IC50 ([2]; βGU-free),"IC50 [3, 12]",IC50 ([3]; βGU-free),"IC50 [4, 12]",IC50 ([4]; βGU-free),"IC50 [5, 12]",IC50 ([5]; βGU-free),"IC50 [6, 12]",IC50 ([6]; βGU-free),"IC50 [7, 12]",IC50 ([7]; βGU-free),"IC50 [8, 12]",IC50 ([8]; βGU-free),Final body weight change (%) [9],Maximum body weight change (%) [9],Relative volume RTV (x±S.D.) [9],T/C (%) [9],also measured
CC[C@H](C)[C@@H]([C@@H](CC(=O)N1CCC[C@H]1[C@H](OC)[C@@H](C)C(=O)N[C@H](C)[C@@H](O)c1ccccc1)OC)N(C)C(=O)[C@@H](NC(=O)[C@H](C(C)C)[N+](C)(C)Cc1ccc(O[C@@H]2O[C@H](C(=O)[O-])[C@@H](O)[C@H](O)[C@H]2O)cc1OCc1cn(CCOCCC(=O)Nc2ccc(-c3ccc(/N=N/c4ccc5c(S(=O)(=O)[O-])cc(S(=O)(=O)[O-])c(N)c5c4O)c(C)c3)cc2C)nn1)C(C)C.[Na+].[Na+] [Example compound 9],0.35 nM,25 nM,2.9 nM,69 nM,4.7 nM,69 nM,2.4 nM,65 nM,3.8 nM,86 nM,2.7 nM,27 nM,3.8 nM,88 nM,0.86 nM,28 nM,5.3%,"5.3, d21%",0.05±0.03,0.4%,"Tumor inhibition rate (%) [9]: 99.9%; Tumor weight (g, x±S.D.) [9]: 0.002 ± 0.001 g; Body weight (g, x±S.D.) End [9]: 25.8 ± 0.7 g; Body weight (g, x±S.D.) Start [9]: 24.5 ± 0.6 g; Final body weight change (%) [10]: 8.8%; Maximum body weight change (%) [10]: 8.8, d21%; Relative volume RTV (x±S.D.) [10]: 0.45±0.30; T/C (%) [10]: 3.2%; Tumor inhibition rate (%) [10]: 97.7%; Tumor weight (g, x±S.D.) [10]: 0.041 ± 0.051 g; Body weight (g, x±S.D.) End [10]: 28.3 ± 2.9 g; Body weight (g, x±S.D.) Start [10]: 26.1 ± 2.8 g; Final body weight change (%) ([11]; 0.4 mg/kg i.v. qw×2): 4.8%; Maximum body weight change (%) ([11]; 0.4 mg/kg i.v. qw×2): 4.8, d28%; Relative volume RTV (x±S.D.) ([11]; 0.4 mg/kg i.v. qw×2): 0.38±0.05; T/C (%) ([11]; 0.4 mg/kg i.v. qw×2): 7.7%; Tumor inhibition rate (%) ([11]; 0.4 mg/kg i.v. qw×2): 93.4%; Tumor weight (g, x±S.D.) ([11]; 0.4 mg/kg i.v. qw×2): 0.073 ± 0.016 g; Body weight (g, x±S.D.) End 24d ([11]; 0.4 mg/kg i.v. qw×2, End 24d): 23.5 ± 0.6 g; Body weight (g, x±S.D.) Start ([11]; 0.4 mg/kg i.v. qw×2, Start): 22.5 ± 1.4 g"
CC[C@H](C)[C@@H]([C@@H](CC(=O)N1CCC[C@H]1[C@H](OC)[C@@H](C)C(=O)N[C@H](C)[C@@H](O)c1ccccc1)OC)N(C)C(=O)[C@@H](NC(=O)[C@H](C(C)C)[N+](C)(CC)Cc1ccc(O[C@@H]2O[C@H](C(=O)[O-])[C@@H](O)[C@H](O)[C@H]2O)cc1OCc1cn(CCCOCC(=O)Nc2ccc(-c3ccc(/N=N/c4ccc5c(S(=O)(=O)[O-])cc(S(=O)(=O)[O-])c(N)c5c4O)c(C)c3)cc2C)nn1)C(C)C.[Na+].[Na+] (stereo partly drawn) [Example compound 11],0.61 nM,21 nM,1.1 nM,55 nM,1.7 nM,64 nM,1.7 nM,77 nM,2.2 nM,63 nM,1.6 nM,45 nM,3 nM,66 nM,0.4 nM,15 nM,5.7%,"5.7, d21%",0.19±0.23,1.7%,"Tumor inhibition rate (%) [9]: 99.3%; Tumor weight (g, x±S.D.) [9]: 0.011 ± 0.013 g; Body weight (g, x±S.D.) End [9]: 25.7 ± 0.8 g; Body weight (g, x±S.D.) Start [9]: 24.4 ± 0.9 g; Final body weight change (%) [10]: 6.7%; Maximum body weight change (%) [10]: 6.7, d21%; Relative volume RTV (x±S.D.) [10]: 0.74±0.51; T/C (%) [10]: 5.2%; Tumor inhibition rate (%) [10]: 96.6%; Tumor weight (g, x±S.D.) [10]: 0.061 ± 0.049 g; Body weight (g, x±S.D.) End [10]: 27.0 ± 2.2 g; Body weight (g, x±S.D.) Start [10]: 25.3 ± 1.6 g"
